We go through 1 molecule from US20240189275A1, “METHODS FOR TREATING NON-ALCOHOLIC STEATOHEPATITIS WITH A SCD-1 INHIBITOR” (Lipidio Pharmaceuticals, Inc., priority 2021, published 2024).

For the test, the target named is T1, human SCD-1 (Homo sapiens, UniProt O00767).
T1 construct: human liver microsome (HLM, InVitroCYP™ H-class, Pool of 25 donors BiolVT); tissue BiolVT InVitroCYP™ H-class; host or cells: human liver microsomes, pool of 25 donors
T1 sequence (O00767 1-359): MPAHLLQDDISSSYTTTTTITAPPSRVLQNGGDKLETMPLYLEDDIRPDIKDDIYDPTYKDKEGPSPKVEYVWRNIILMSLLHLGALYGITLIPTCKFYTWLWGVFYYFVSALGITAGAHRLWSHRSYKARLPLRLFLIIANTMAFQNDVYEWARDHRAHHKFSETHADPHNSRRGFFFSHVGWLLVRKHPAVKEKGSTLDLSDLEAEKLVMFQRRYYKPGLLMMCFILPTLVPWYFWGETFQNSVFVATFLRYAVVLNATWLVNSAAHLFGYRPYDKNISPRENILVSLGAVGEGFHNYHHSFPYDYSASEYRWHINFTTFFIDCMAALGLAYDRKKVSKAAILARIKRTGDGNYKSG
In words: Inhibition of SCD-1 activity in human liver microsomes (13C-stearoyl-CoA to 13C-oleoyl-CoA, LC/MS/MS). In kind it is biochemical. The conditions noted are these: FIG. 1, IC50 value not given. Here is the method:
The ability of the compound to inhibit isolated SCD-1 enzyme activity can be evaluated in rat and human microsomes as described below (Oncotarget (2018), 9, 3-20). The compound is added as various concentrations to the liver microsomes and incubated for 5 minutes with ^13C-labelled Stearoyl CoA, which is the substrate for SCD-1. The activity of SCD-1 is then determined by the conversion of ^13C-Steoryl CoA to ^13C-Oleoyl CoA using an LC/MS/MS method. The ability of the compound to inhibit SCD-1 activity is expressed as an IC50.
Compound 25 is dissolved in DMSO to prepare a 10 mM stock solution.
Rat liver microsomes (RLM, BiolVT) and human liver microsome (HLM, InVitroCYP™ H-class, Pool of 25 donors BiolVT) solutions are prepared by adding the microsomes to 100 mM sodium phosphate, pH 7.4, at a protein concentration of 1.00 mg/mL.
Compound 25 stock solution is then added to the RLM and HLM solution at an initial concentration of 0.2 μM for direct inhibition. Each LM/Inhibitor Solution is added to blank LM solution to give 8 concentrations prepared by a 3-fold serial dilution. These diluted LM/inhibitor solutions are then added to a reaction buffer containing 2 mM NADH, 120 μM Coenzyme A, 2 mM ATP, 2 mM DTT, and 10 mM MgCl2 in 100 mM sodium phosphate, pH 7.4.
A Stearoyl-^13Cis-CoA solution in 10% methanol in water is prepared at a final concentration of 3.00 mM. […]
For orientation: Liver microsomes are vesicles of endoplasmic reticulum, rich in cytochrome P450 enzymes.

For `O=C(COc1ccc(CO)cc1)N1CC[C@H](Oc2ccccc2C(F)(F)F)C1` [Compound 25, (S)-2-(4-(hydroxymethyl)phenoxy)-1-(3-(2-(trifluoromethyl)phenoxy)pyrrolidin-1-yl)ethan-1-one], the “inhibition of human SCD-1 activity” value was “concentration-dependent inhibition”.
